Legend:
Experiment in all cases: radiometric filter-binding kinase assay, Kinase HotSpot
Conditions in all cases: compound 0.5 µM; ATP 10 µM
CAMK2D (human) = CAMK2D (human) (UniProt Q13557)
FER (human) = FER (human) (UniProt P16591)
ITK (human) = ITK (human) (UniProt Q08881)
MARK4 (human) = MARK4 (human) (UniProt Q96L34)
MET (human) = MET (human) (UniProt P08581)
MST4 (human) = MST4 (human) (UniProt Q9P289)
NEK1 (human) = NEK1 (human) (UniProt Q96PY6)
PIM1 (human) = PIM1 (human) (UniProt P11309)
STK4 (human) = STK4 (human) (UniProt Q13043)
Sequence of STK4 (human) (Q13043 whole entry, looked up): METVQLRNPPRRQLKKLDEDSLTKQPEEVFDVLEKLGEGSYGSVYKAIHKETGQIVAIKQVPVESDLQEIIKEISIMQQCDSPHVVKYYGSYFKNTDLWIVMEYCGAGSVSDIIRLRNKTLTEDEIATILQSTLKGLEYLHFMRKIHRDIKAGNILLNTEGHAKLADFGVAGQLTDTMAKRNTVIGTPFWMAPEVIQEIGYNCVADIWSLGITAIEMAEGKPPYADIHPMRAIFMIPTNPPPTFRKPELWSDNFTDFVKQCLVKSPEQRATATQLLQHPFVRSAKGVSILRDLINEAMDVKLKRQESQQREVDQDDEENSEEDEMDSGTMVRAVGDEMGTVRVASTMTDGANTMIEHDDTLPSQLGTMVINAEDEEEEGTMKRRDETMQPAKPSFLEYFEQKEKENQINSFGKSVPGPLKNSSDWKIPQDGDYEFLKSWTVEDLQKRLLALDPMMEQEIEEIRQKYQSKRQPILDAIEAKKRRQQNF

Sequence of CAMK2D (human) (Q13557 whole entry, looked up): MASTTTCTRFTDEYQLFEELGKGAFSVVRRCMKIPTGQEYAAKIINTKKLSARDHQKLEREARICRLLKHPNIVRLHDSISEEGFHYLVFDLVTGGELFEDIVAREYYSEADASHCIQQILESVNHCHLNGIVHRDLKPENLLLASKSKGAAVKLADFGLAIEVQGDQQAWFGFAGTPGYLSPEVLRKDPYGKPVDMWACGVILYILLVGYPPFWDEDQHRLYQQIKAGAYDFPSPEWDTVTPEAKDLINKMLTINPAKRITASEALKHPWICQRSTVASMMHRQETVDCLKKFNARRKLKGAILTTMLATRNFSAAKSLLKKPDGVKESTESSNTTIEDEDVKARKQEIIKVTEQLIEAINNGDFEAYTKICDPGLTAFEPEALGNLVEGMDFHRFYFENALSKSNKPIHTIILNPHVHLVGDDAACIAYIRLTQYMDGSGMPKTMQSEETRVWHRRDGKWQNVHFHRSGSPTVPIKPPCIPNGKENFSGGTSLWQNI
Sequence of MARK4 (human) (Q96L34 whole entry, looked up): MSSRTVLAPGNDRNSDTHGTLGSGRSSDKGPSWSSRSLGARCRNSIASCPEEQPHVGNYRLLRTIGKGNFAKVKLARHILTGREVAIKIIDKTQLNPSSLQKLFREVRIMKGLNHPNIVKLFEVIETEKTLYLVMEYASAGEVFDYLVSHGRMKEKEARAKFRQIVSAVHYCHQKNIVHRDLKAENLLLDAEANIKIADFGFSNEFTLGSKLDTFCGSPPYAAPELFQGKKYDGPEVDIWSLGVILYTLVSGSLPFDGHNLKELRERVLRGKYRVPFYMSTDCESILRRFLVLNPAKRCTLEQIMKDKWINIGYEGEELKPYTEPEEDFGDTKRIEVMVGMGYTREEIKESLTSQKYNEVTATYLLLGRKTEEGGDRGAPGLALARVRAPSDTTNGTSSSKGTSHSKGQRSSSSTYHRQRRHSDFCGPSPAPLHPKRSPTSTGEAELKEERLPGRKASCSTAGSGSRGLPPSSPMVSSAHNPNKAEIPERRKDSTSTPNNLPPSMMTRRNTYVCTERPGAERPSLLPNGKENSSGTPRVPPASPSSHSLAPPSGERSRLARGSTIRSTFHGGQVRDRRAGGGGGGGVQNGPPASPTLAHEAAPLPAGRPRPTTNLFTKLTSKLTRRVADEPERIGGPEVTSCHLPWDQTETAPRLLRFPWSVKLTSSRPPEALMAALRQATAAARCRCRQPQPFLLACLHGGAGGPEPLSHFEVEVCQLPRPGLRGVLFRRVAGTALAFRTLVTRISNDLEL
Sequence of ITK (human) (Q08881 whole entry, looked up): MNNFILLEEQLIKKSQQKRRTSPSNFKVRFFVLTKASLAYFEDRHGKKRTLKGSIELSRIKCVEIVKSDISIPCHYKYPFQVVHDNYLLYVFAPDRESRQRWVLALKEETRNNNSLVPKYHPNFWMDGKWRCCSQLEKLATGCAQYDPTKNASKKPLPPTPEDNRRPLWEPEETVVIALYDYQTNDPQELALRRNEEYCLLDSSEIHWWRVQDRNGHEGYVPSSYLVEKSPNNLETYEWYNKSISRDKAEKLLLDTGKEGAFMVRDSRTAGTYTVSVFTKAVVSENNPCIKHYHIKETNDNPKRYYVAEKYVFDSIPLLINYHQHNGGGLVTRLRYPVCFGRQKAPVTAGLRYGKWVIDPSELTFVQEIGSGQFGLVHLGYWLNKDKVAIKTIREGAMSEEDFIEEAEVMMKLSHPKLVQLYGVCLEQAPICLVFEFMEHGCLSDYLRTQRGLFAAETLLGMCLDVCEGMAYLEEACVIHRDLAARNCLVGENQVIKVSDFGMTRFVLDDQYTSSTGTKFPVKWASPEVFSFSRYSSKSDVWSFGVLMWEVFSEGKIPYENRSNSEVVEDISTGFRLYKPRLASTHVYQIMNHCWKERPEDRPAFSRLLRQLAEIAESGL
Sequence of FER (human) (P16591 whole entry, looked up): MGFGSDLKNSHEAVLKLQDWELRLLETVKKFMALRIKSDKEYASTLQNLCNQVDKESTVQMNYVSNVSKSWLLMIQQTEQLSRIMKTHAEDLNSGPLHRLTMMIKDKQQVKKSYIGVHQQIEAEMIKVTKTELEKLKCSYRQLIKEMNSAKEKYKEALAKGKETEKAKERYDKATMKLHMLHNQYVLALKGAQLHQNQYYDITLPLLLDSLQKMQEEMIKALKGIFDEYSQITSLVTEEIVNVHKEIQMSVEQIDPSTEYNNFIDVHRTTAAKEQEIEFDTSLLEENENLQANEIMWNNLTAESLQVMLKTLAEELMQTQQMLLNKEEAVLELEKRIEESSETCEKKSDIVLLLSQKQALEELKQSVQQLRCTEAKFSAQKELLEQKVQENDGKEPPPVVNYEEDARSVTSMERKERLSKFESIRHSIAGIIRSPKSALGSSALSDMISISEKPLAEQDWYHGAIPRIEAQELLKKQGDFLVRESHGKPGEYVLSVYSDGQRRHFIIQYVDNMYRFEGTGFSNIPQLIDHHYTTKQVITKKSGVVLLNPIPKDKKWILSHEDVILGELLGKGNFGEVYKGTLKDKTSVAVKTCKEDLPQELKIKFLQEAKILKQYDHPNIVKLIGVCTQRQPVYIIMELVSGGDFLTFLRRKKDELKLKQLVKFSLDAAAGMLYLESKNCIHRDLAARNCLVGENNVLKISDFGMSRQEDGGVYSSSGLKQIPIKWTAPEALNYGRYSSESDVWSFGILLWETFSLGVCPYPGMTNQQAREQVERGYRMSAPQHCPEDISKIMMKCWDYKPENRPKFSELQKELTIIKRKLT
Sequence of MST4 (human) (Q9P289 whole entry, looked up): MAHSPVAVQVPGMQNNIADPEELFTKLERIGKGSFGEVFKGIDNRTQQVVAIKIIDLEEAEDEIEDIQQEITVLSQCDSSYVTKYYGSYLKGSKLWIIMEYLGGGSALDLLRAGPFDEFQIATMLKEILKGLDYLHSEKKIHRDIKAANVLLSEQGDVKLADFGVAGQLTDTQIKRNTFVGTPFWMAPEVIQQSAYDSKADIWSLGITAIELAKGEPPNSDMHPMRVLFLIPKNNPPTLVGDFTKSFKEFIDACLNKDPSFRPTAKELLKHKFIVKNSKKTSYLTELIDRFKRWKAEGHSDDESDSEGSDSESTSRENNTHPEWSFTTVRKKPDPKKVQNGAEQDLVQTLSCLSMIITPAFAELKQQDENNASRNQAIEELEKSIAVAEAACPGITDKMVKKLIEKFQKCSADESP
Sequence of MET (human) (P08581 whole entry, looked up): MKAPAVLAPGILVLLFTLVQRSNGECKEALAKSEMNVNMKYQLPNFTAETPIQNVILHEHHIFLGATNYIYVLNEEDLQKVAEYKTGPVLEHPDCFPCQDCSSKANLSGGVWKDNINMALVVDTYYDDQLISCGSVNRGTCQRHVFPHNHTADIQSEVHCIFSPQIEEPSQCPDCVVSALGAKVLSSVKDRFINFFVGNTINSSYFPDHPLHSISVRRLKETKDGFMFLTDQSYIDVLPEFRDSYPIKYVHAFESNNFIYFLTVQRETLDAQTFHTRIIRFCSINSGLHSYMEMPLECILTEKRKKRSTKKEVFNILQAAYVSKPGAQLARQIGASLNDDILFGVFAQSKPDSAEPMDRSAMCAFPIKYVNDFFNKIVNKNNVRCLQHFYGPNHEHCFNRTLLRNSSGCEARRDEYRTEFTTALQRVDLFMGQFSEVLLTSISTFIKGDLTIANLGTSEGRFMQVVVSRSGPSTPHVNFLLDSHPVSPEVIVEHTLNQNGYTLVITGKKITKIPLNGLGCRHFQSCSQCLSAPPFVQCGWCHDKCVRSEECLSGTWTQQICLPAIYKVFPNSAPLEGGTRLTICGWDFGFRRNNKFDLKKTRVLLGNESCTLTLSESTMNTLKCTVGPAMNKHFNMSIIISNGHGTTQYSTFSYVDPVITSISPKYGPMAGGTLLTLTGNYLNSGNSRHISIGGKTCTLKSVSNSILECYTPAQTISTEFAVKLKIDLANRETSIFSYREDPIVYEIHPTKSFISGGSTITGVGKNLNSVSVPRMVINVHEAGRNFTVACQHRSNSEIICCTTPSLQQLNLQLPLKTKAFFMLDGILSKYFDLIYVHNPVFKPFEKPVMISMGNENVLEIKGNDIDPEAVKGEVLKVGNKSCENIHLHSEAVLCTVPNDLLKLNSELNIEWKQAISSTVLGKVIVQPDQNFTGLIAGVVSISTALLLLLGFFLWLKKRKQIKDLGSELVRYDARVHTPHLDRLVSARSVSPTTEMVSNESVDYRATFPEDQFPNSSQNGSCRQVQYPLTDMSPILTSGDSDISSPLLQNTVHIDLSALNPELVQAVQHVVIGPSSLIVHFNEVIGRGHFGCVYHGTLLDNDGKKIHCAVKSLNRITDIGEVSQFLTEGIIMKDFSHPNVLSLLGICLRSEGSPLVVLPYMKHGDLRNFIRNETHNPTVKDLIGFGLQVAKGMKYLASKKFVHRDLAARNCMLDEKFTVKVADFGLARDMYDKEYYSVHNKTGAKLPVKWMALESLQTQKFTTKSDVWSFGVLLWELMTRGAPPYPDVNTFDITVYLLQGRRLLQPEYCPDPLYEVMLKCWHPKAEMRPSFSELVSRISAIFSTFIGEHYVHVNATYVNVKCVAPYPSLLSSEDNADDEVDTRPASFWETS

## CN[C@@H]1C[C@H]2O[C@@](C)([C@@H]1OC)n1c3ccccc3c3c4c(c5c6ccccc6n2c5c31)C(=O)NC4
CAMK2D (human)
  residual activity: 3.05%
FER (human)
  residual activity: 0.816%
ITK (human)
  residual activity: 2.89%
MARK4 (human)
  residual activity: -0.0069%
MET (human)
  residual activity: 32.7%
MST4 (human)
  residual activity: 4.43%
NEK1 (human)
  residual activity: 3.99%
PIM1 (human)
  residual activity: 1.47%
STK4 (human)
  residual activity: -0.197%
